# Data reported in patent US20160030407A1, “Method of Treating Inflammatory Lung Disease” (priority 2010, published 2016).
# Several values for one entry are separate records, joined by “and”; a condition that tells them apart may be missing. Equal values may be shown once.
# Key:
# nAChR α7 = biological target: T1, nAChR α7 (Homo sapiens, UniProt P36544); experiment: nAChR α7 channel agonist assay (FLIPR); format: cell-based; conditions: in presence of PNU-120596; maximal stimulation not achieved
# T1 construct: host or cells: CHO cells coexpressing RIC-3
# T1 sequence (P36544 23-502): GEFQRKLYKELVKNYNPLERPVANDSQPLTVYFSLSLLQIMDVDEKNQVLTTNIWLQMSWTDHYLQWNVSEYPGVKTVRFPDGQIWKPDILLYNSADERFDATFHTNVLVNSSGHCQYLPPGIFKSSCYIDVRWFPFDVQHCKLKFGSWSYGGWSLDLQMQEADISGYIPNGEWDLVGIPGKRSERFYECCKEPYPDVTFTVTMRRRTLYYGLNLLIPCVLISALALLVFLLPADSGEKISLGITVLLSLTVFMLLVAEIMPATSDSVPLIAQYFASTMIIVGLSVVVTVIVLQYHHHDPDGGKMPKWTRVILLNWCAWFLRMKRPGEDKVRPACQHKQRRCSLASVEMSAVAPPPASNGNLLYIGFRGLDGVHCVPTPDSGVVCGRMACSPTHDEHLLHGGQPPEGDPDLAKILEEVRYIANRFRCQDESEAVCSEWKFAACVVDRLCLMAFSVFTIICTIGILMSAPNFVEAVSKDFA
# Protocol: (§1) Briefly, cells were incubated with […] dye for 30 min at 37° C.
# Therefore, the assay of agonist activity for either Ach or for the test articles was conducted in the presence of the positive allosteric modulator.
# [1] = Single i.v. dose toxicity: body weights and food consumption; format: in vivo, Sprague-Dawley rats; conditions: for Mean food consumption/day: 14 days, 0.1 mg/kg
# Protocol: (§2) Body weight and food consumption was measured daily for 14 days. On day 15, urine was collected on all surviving animals. The animals were euthanized and bled via cardiac puncture, and blood was collected for analysis. Tissues were collected, weighed, evaluated for gross abnormalities, and stored in 10% neutral-buffered formalin.
# All animals were observed daily.
# NFκB = NFκB luciferase assay (inhibition of TNFα-induced NFκB activity); format: cell-based, Human
# Protocol: The smokeless tobacco used in these experiments was plain long-leaf Copenhagen tobacco purchased from a local vendor. Crude extract was extracted with methanol and water and clarified by centrifugation and filtration. The alkaloid extract was prepared from sodium hydroxide and methanol extraction, organic phase separation and purification. All treatment samples were prepared as a function of weight (μg/ml), and all samples were diluted in DMSO.
# Human […] kidney cells (HEK293) transfected with an NFκB luciferase reporter were challenged with TNFα for three hours, then samples were applied to the challenged cells.
# The effect of S-(−)-anatabine on TNFα-induced NFκB activity in vitro was determined as described in Example 1.
# [2] = Single i.v. dose toxicity: necropsy observations and organ weights; format: in vivo, Sprague-Dawley rats
# Protocol: as §2
# (§3) On day 15, urine was collected on all surviving animals for urinalysis. The animals were euthanized and bled via cardiac puncture. Blood was collected for hematology, clinical chemistry, and coagulation analysis. Tissues were collected, weighed, and stored in 10% neutral-buffered formalin for possible future analysis.
# nAChR α3/β4 = nAChR α3/β4 (Homo sapiens, UniProt P30926+P32297); format: cell-based; conditions: with 10 μM Ach
# Chain of nAChR α3/β4 (P32297 32-505): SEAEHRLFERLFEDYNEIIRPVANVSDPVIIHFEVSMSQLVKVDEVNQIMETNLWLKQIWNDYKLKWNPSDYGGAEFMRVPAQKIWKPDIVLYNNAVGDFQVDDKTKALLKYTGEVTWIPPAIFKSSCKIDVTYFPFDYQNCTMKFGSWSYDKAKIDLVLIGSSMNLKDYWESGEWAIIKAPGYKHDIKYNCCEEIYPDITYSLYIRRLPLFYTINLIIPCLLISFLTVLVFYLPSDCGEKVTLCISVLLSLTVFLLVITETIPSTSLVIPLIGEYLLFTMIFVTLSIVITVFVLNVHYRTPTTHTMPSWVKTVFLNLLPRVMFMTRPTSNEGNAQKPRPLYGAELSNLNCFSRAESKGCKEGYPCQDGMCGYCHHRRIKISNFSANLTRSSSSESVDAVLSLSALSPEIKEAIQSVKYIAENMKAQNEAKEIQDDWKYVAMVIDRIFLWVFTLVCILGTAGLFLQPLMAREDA
# Chain of nAChR α3/β4 (P30926 22-498): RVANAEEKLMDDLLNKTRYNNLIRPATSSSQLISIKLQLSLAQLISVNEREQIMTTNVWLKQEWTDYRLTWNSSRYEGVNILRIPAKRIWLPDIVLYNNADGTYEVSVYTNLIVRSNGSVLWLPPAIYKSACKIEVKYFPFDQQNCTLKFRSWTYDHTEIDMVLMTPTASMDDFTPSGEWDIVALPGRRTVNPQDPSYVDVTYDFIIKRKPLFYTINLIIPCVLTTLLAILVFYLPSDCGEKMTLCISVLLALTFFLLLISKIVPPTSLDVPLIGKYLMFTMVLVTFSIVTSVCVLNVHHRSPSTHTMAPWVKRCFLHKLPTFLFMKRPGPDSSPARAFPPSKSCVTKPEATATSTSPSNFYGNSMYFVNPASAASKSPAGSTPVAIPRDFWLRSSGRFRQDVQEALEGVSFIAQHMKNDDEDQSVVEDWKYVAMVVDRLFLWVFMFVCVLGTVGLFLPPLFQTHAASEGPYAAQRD
# Protocol: as §1
# nAChR α4/β2 = biological target: T2, nAChR α4/β2 (Homo sapiens, UniProt P17787+P43681); format: cell-based; conditions: 100 μM Ach + 0.3 μM epibatidine; not concentration-dependent, IC50s could not be determined
# T2 construct: host or cells: HEK293 cells, transient
# T2 sequence (P43681 29-627): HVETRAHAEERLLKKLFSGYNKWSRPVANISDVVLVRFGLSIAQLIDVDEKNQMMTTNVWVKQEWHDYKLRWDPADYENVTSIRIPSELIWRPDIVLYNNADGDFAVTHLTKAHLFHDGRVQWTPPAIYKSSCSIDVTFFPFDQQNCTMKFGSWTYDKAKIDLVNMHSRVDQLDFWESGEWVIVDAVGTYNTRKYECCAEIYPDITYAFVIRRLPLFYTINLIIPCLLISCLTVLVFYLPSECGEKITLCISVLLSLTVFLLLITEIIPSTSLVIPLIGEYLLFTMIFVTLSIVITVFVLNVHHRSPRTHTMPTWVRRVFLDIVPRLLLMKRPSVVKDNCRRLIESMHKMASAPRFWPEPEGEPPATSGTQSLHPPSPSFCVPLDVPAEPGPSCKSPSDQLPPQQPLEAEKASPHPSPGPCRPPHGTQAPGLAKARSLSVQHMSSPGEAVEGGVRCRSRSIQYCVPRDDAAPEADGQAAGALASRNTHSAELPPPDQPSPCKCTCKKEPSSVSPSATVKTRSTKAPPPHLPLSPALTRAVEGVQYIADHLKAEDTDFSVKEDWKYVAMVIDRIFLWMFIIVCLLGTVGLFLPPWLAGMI
# T2 sequence (P17787 26-502): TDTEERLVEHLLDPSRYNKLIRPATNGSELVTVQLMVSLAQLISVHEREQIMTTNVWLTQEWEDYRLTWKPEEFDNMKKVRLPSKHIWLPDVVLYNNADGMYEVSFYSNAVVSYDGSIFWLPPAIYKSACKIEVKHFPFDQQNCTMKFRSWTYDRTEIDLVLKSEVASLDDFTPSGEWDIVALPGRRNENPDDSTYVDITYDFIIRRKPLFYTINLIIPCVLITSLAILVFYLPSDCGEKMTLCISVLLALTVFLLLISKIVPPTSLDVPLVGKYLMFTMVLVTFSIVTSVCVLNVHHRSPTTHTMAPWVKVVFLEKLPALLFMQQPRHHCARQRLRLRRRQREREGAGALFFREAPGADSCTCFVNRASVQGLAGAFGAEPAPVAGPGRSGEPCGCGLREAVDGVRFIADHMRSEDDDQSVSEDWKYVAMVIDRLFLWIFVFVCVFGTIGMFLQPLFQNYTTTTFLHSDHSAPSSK
# Protocol: as §1
# [3] = Single i.v. dose toxicity: coagulation (aPTT, PT); format: in vivo, Sprague-Dawley rats; conditions: for ACTIVE PARTIAL THROMBOPLASTIN TIME: Anatabine 0.1 mg/kg single i.v. dose
# Source text: as §3
# [4] = Anatabine 0.1 mg/kg, F, individual rats
# [5] = Anatabine 0.1 mg/kg, M, individual rats
# [6] = Anatabine 0.75 mg/kg, F, individual rats
# [7] = Anatabine 0.75 mg/kg, M, individual rats
# [8] = single i.v. 0.1 mg/kg, male rats
# [9] = Group B: Anatabine 0.1 mg/kg (Females), individual animals
# [10] = Group B: Anatabine 0.1 mg/kg (Males), individual animals
# [11] = Group C: Anatabine 0.75 mg/kg (Females), individual animals
# [12] = Group C: Anatabine 0.75 mg/kg (Males), individual animals
# [13] = female animals, Anatabine 0.1 mg/kg, n = 5
# [14] = female animals, Anatabine 0.75 mg/kg, n = 5
# [15] = male rats, single i.v. 0.1 mg/kg, day 15
# [16] = male rats, single i.v. 0.75 mg/kg anatabine, day 15
compound,measurement,setting,value
"C1=CCC(c2cccnc2)NC1 (racemic) [Anatabine, 1,2,3,6-tetrahydro-[2,3′]bipyridinyl]",agonist activity,nAChR α7,showed agonist activity
same,day 7 B.W.,[1]; [4],222.0 g
same,day 12 B.W.,[1]; [4],240.0 g
same,day 3 B.W.,[1]; [5],270.0 g
same,day 4 B.W.,[1]; [5],270.0 g
same,day 8 B.W.,[1]; [5],310.0 g
same,day 9 B.W.,[1]; [5],310.0 g
same,day 12 B.W.,[1]; [5],320.0 g
same,day 13 B.W.,[1]; [5],360 g
same,day 2 B.W.,[1]; [6],210.0 g
same,day 4 B.W.,[1]; [6],230.0 g and 220.0 g
same,day 8 B.W.,[1]; [6],220.0 g
same,day 2 B.W.,[1]; [7],240.0 g
same,day 8 B.W.,[1]; [7],300.0 g
same,day 13 B.W.,[1]; [7],330 g
same,Mean weight increase by day 14,"[1]; single i.v. 0.1 mg/kg, female rats",39.0 g
same,Mean weight increase by day 14,[1]; [8],132.5 g
same,Mean food consumption/day,[1]; [8],31.0 g
same,Mean food consumption/day,"[1]; single i.v. 0.1 mg/kg, male rats, listed as anatabine",statistically higher
same,Mean weight increase by day 14,"[1]; single i.v. 0.75 mg/kg anatabine, female rats",43.1 g
same,Mean weight increase by day 14,"[1]; single i.v. 0.75 mg/kg anatabine, male rats",111.6 g
same,Effect on TNFα-induced NFκB-mediated transcription of luciferase,NFκB; HEK293 with NFκB luciferase reporter challenged with TNFα,reduce this transcription to control levels
same,IC50,"NFκB; Homo sapiens, 20 ng/ml TNFα, HEK293 NFκB luciferase",~600 µg/mL
same,Tissue Collection Weights: Heart,[2]; [9],0.95 g
same,Tissue Collection Weights: Ovaries/uterus,[2]; [9],0.96 g and 0.84 g and 0.70 g
same,Tissue Collection Weights: Small intestine,[2]; [9],0.87 g and 0.71 g and 0.55 g and 0.49 g and 0.63 g
same,Tissue Collection Weights: Spleen,[2]; [9],0.79 g and 0.62 g and 0.51 g and 0.67 g and 0.65 g
same,Tissue Collection Weights: Thymus,[2]; [9],0.68 g and 0.59 g and 0.49 g and 0.71 g and 0.73 g
same,Tissue Collection Weights: Heart,[2]; [10],1.60 g
same,Tissue Collection Weights: Kidneys,[2]; [10],3.70 g
same,Tissue Collection Weights: Prostate,[2]; [10],0.72 g and 0.49 g and 0.73 g and 0.53 g and 0.48 g
same,Tissue Collection Weights: Small intestine,[2]; [10],0.61 g and 0.96 g and 0.88 g and 0.50 g and 0.35 g
same,Tissue Collection Weights: Spleen,[2]; [10],0.91 g and 0.66 g and 0.82 g and 0.93 g and 0.76 g
same,Tissue Collection Weights: Thymus,[2]; [10],0.74 g (2×) and 0.76 g and 0.71 g and 0.81 g
same,Tissue Collection Weights: Brain,[2]; [11],1.93 g
same,Tissue Collection Weights: Heart,[2]; [11],0.99 g
same,Tissue Collection Weights: Kidneys,[2]; [11],2.20 g
same,Tissue Collection Weights: Lungs,[2]; [11],1.30 g
same,Tissue Collection Weights: Ovaries/uterus,[2]; [11],0.81 g and 1.50 g and 0.72 g
same,Tissue Collection Weights: Small intestine,[2]; [11],0.72 g and 0.37 g and 0.85 g and 0.47 g
same,Tissue Collection Weights: Spleen,[2]; [11],0.70 g and 0.65 g (2×) and 0.51 g and 0.49 g
same,Tissue Collection Weights: Thymus,[2]; [11],0.56 g and 0.53 g and 0.63 g and 0.52 g and 0.54 g
same,Tissue Collection Weights: Brain,[2]; [12],2.00 g
same,Tissue Collection Weights: Prostate,[2]; [12],0.49 g (2×) and 0.65 g and 0.46 g and 0.45 g
same,Tissue Collection Weights: Small intestine,[2]; [12],0.54 g and 0.56 g and 0.41 g and 0.47 g
same,Tissue Collection Weights: Spleen,[2]; [12],0.71 g and 0.63 g and 0.79 g and 0.93 g and 0.64 g
same,Tissue Collection Weights: Testes,[2]; [12],2.70 g
same,Tissue Collection Weights: Thymus,[2]; [12],0.52 g and 0.67 g and 0.69 g and 0.47 g
same,"Organ Weight Brain, Mean",[2]; [13],1.86 g
same,"Organ Weight Heart, Mean",[2]; [13],1.13 g
same,"Organ Weight Liver, Mean",[2]; [13],10.84 g
same,"Organ Weight Lungs, Mean",[2]; [13],1.41 g
same,"Organ Weight Ovaries/uteris, Mean",[2]; [13],1.14 g
same,"Organ Weight, Small intestine (mean)",[2]; [13],0.65 g
same,"Organ Weight, Spleen (mean)",[2]; [13],0.65 g
same,"Organ Weight, Thymus (mean)",[2]; [13],0.64 g
same,"Organ Weight Brain, Mean",[2]; [14],1.90 g
same,"Organ Weight Heart, Mean",[2]; [14],1.11 g
same,"Organ Weight Kidneys, Mean",[2]; [14],2.30 g
same,"Organ Weight Liver, Mean",[2]; [14],10.42 g
same,"Organ Weight Lungs, Mean",[2]; [14],1.45 g
same,"Organ Weight Ovaries/uteris, Mean",[2]; [14],1.58 g
same,"Organ Weight, Small intestine (mean)",[2]; [14],0.75 g
same,"Organ Weight, Spleen (mean)",[2]; [14],0.60 g
same,"Organ Weight, Thymus (mean)",[2]; [14],0.56 g
same,"Organ Weight, Prostate (mean)",[2]; [15],0.59 g
same,"Organ Weight, Small intestine (mean)",[2]; [15],0.66 g
same,"Organ Weight, Spleen (mean)",[2]; [15],0.82 g
same,"Organ Weight, Thymus (mean)",[2]; [15],0.75 g
same,"Organ Weight, Prostate (mean)",[2]; [16],0.51 g
same,"Organ Weight, Small intestine (mean)",[2]; [16],0.68 g
same,"Organ Weight, Spleen (mean)",[2]; [16],0.74 g
same,"Organ Weight, Thymus (mean)",[2]; [16],0.67 g
same,potentiation,nAChR α3/β4,Neither nicotine nor anatabine potentiated
same,inhibition,nAChR α4/β2,inhibited receptor activity
same,ACTIVE PARTIAL THROMBOPLASTIN TIME,"[3]; female rats, individual animals B6-B10",26 s
same,ACTIVE PARTIAL THROMBOPLASTIN TIME,"[3]; male rats, individual animals B1-B5",32 s
same,aPTT and PT vs vehicle control,"[3]; rat, each anatabine treatment group",no significant differences in aPTT or PT
